Data as given in patent US11998539B2, “Substituted aminoquinolones as DGKalpha inhibitors for immune activation” (Bayer Aktiengesellschaft, priority 2019, dated 2024).

Biological target: DGKα (Homo sapiens (Human), UniProt P23743)
Assay: Human DGKα kinase activity inhibition assay (ADP-Glo)
Type: biochemical
Settings: recombinant full-length human DGKα, 55 μM ATP, 7 μM 1,2-dioleoyl-sn-glycerol, read-out: IC50 values of examples in in vitro human DGKa kinase activity inhibition assays
Experimental: Human DGKα Kinase Activity Inhibition Assay
Human DGKα inhibitory activity of compounds of the present invention was quantified employing the human DGKα kinase activity assay as described in the following paragraphs. In essence, the enzyme activity was measured by quantification of the adenosine-di-phosphate (ADP) generated as a co-product of the enzyme reaction via the “ADP-Glo™ Kinase Assay” kit from the company Promega. This detection system works as follows: In a first step the ATP not consumed in the kinase reaction is quantitatively converted to cAMP employing an adenylate cyclase (“ADP-Glo-reagent”), then the adenylate cyclase is stopped and the ADP generated in the kinase reaction converted to ATP, which subsequently generates in a luciferase-based reaction a glow-luminescence signal (“Kinase Detection Reagent”).
C-terminally FLAG-tagged, recombinant full-length human DGKα (expressed in baculovirus infected insect cells, purified using anti-Flag pulldown and size exclusion chromatography as described below, DGKa_hu_1) was used as enzyme. As substrate for the kinase 1,2-dioleoyl-sn-glycerol, reconstituted in octyl-β-D-glucopyranoside micelles, was used. […] Then 35 volumes of 50 mM MOPS buffer (pH 7.4) were added to yield a solution of 0.28 mM 1,2 dioleoyl-sn-glycerol and 200 mM […], which was aliquoted, flash-frozen in liquid nitrogen, and stored at −20° C. until use.
For the assay 50 nl of a 100-fold concentrated solution of the test compound in dimethyl sulfoxide (DMSO, Sigma) was pipetted into either a white 1536-well or a white low-volume 384-well microtiter plate (both Greiner Bio-One, Frickenhausen, Germany).

DGKα, sequence (P23743 other isoform, or with tags, fused parts or gaps): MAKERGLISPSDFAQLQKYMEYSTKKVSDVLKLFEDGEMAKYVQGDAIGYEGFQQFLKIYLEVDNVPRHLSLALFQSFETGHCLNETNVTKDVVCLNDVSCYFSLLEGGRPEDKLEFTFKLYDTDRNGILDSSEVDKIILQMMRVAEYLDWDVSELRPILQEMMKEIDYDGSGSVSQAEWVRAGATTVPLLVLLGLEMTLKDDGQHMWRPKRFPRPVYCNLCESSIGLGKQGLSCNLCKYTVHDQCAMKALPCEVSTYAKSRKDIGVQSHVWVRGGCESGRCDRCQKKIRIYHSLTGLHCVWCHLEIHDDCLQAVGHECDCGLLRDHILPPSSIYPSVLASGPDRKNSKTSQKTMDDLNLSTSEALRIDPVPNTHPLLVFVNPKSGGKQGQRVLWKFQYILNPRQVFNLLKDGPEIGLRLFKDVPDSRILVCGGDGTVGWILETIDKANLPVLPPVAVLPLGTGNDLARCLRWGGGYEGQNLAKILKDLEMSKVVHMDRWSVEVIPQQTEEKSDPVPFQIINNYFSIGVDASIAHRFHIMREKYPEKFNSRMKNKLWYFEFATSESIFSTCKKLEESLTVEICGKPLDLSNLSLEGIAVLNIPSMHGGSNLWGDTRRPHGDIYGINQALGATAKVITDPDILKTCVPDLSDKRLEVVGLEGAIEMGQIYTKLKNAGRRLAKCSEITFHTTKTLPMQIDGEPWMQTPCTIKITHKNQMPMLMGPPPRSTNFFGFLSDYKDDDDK

SMILES | IC50
Cc1cccc(-c2nnc(C3CCN(c4c(C#N)c(=O)n(C)c5ccccc45)CC3)o2)c1 [Example 353, 1-methyl-4-{4-[5-(3-methylphenyl)-1,3,4-oxadiazol-2-yl]piperidin-1-yl}-2-oxo-1,2-dihydroquinoline-3-carbonitrile] | 254 nM
Cc1ccc2oc(C3CCN(c4c(C#N)c(=O)n(C)c5cc(O)c(C)cc45)CC3)nc2c1 [Example 428, 7-hydroxy-1,6-dimethyl-4-[4-(5-methyl-1,3-benzoxazol-2-yl)piperidin-1-yl]-2-oxo-1,2-dihydroquinoline-3-carbonitrile] | 0.6 nM
Cn1c(=O)c(C#N)c(N2CCC(c3ccc(S(C)(=O)=O)cc3)CC2)c2ccccc21 [Example 65, 4-{4-[4-(methanesulfonyl)phenyl]piperidin-1-yl}-1-methyl-2-oxo-1,2-dihydroquinoline-3-carbonitrile] | 74 nM
Cc1ccc2oc(C3CCN(c4c(C#N)c(=O)n(C)c5cc(Br)ccc45)CC3)nc2c1 [Example 281, 7-bromo-1-methyl-4-[4-(5-methyl-1,3-benzoxazol-2-yl)piperidin-1-yl]-2-oxo-1,2-dihydroquinoline-3-carbonitrile] | 8.9 nM
Cc1ccc2oc(C3(C)CCN(c4c(C(N)=O)c(=O)n(C)c5ccc(C#N)cc45)CC3)nc2c1 [Example 208, 6-cyano-1-methyl-4-[4-methyl-4-(5-methyl-1,3-benzoxazol-2-yl)piperidin-1-yl]-2-oxo-1,2-dihydroquinoline-3-carboxamide] | 3.4 nM
Cc1ccc2oc(C3(C)CCN(c4c(C(N)=O)c(=O)n(C)c5cc(C)ccc45)CC3)nc2c1 [Example 312, 1,7-dimethyl-4-[4-methyl-4-(5-methyl-1,3-benzoxazol-2-yl)piperidin-1-yl]-2-oxo-1,2-dihydroquinoline-3-carboxamide] | 0.7 nM
COCCOc1ccc2c(N3CCC(c4nc5cc(C)ccc5o4)CC3)c(C#N)c(=O)n(C)c2c1 [Example 383, 7-(2-methoxyethoxy)-1-methyl-4-[4-(5-methyl-1,3-benzoxazol-2-yl)piperidin-1-yl]-2-oxo-1,2-dihydroquinoline-3-carbonitrile] | 5.1 nM
COc1ccc2c(c1)c(N1CCC(c3nc(-c4cccc(C)c4)no3)CC1)c(C#N)c(=O)n2C [Example 436, 6-methoxy-1-methyl-4-{4-[3-(3-methylphenyl)-1,2,4-oxadiazol-5-yl]piperidin-1-yl}-2-oxo-1,2-dihydroquinoline-3-carbonitrile] | 32 nM
COc1cccc(-c2csc(C3CCN(c4c(C(N)=O)c(=O)n(C)c5ccccc45)CC3)n2)c1 [Example 476, 4-{4-[4-(3-methoxyphenyl)-1,3-thiazol-2-yl]piperidin-1-yl}-1-methyl-2-oxo-1,2-dihydroquinoline-3-carboxamide] | 7.1 nM
Cn1c(=O)c(C#N)c(N2CCC(C)(c3nnc(-c4cccc(Cl)c4)o3)CC2)c2ccccc21 [Example 355, 4-{4-[5-(3-chlorophenyl)-1,3,4-oxadiazol-2-yl]-4-methylpiperidin-1-yl}-1-methyl-2-oxo-1,2-dihydroquinoline-3-carbonitrile] | 140 nM
CC(C)c1ccc2oc(C3CCN(c4c(C#N)c(=O)n(C)c5ccccc45)CC3)nc2c1 [Example 8, 1-methyl-2-oxo-4-{4-[5-(propan-2-yl)-1,3-benzoxazol-2-yl]piperidin-1-yl}-1,2-dihydroquinoline-3-carbonitrile] | 3.2 nM
CC(C)c1ccc2oc(C3CCN(c4c(C#N)c(=O)n(C)c5ccc(Br)cc45)CC3)nc2c1 [Example 170, 6-bromo-1-methyl-2-oxo-4-{4-[5-(propan-2-yl)-1,3-benzoxazol-2-yl]piperidin-1-yl}-1,2-dihydroquinoline-3-carbonitrile] | 7.2 nM
CCn1c(=O)c(C#N)c(N2CCC(c3nc4ccccc4o3)CC2)c2ccccc21 [Example 332, 4-[4-(1,3-benzoxazol-2-yl)piperidin-1-yl]-1-ethyl-2-oxo-1,2-dihydroquinoline-3-carbonitrile] | 17 nM
CCC1(c2nc3cc(C)ccc3o2)CCN(c2c(C#N)c(=O)n(C)c3ccccc23)CC1 [Example 140, 4-[4-ethyl-4-(5-methyl-1,3-benzoxazol-2-yl)piperidin-1-yl]-1-methyl-2-oxo-1,2-dihydroquinoline-3-carbonitrile] | 1.6 nM
Cc1ccc2oc(C3(C)CCN(c4c(C#N)c(=O)n(C)c5cc(O)c(C#N)cc45)CC3)nc2c1 [Example 426, 7-hydroxy-1-methyl-4-[4-methyl-4-(5-methyl-1,3-benzoxazol-2-yl)piperidin-1-yl]-2-oxo-1,2-dihydroquinoline-3,6-dicarbonitrile] | 13 nM
Cn1c(=O)c(C(N)=O)c(N2CCC(c3nc4ccccc4o3)CC2)c2ccc(N3CCCC3=O)cc21 [Example 318, 4-[4-(1,3-benzoxazol-2-yl)piperidin-1-yl]-1-methyl-2-oxo-7-(2-oxopyrrolidin-1-yl)-1,2-dihydroquinoline-3-carboxamide] | 48 nM
Cn1c(=O)c(C#N)c(N2CCC(c3nc4ccc(Br)cc4s3)CC2)c2ccccc21 [Example 14, 4-[4-(6-bromo-1,3-benzothiazol-2-yl)piperidin-1-yl]-1-methyl-2-oxo-1,2-dihydroquinoline-3-carbonitrile] | 4.4 nM
Cc1ccccc1-n1ccc(C2CCN(c3c(C(N)=O)c(=O)n(C)c4ccccc34)CC2)n1 [Example 473, 1-methyl-4-{4-[1-(2-methylphenyl)-1H-pyrazol-3-yl]piperidin-1-yl}-2-oxo-1,2-dihydroquinoline-3-carboxamide] | 23 nM
CC(C)Oc1ccc(C2CCN(c3c(C#N)c(=O)n(C)c4ccccc34)CC2)cc1 [Example 38, 1-methyl-2-oxo-4-(4-{4-[(propan-2-yl)oxy]phenyl}piperidin-1-yl)-1,2-dihydroquinoline-3-carbonitrile] | 1.5 nM
Cc1cccc2nc(C3CCN(c4c(C#N)c(=O)n(C)c5ccccc45)CC3)oc12 [Example 15, 1-methyl-4-[4-(7-methyl-1,3-benzoxazol-2-yl)piperidin-1-yl]-2-oxo-1,2-dihydroquinoline-3-carbonitrile] | 11 nM
Cn1c(=O)c(C#N)c(N2CCC(c3nc4ccccc4o3)CC2)c2ccc(N3CCCC3=O)cc21 [Example 35, 4-[4-(1,3-benzoxazol-2-yl)piperidin-1-yl]-1-methyl-2-oxo-7-(2-oxopyrrolidin-1-yl)-1,2-dihydroquinoline-3-carbonitrile] | 7.8 nM
C=C(c1ccc2c(c1)c(N1CCC(c3nc4cc(C)ccc4o3)CC1)c(C#N)c(=O)n2C)C(F)(F)F [Example 411, 1-methyl-4-[4-(5-methyl-1,3-benzoxazol-2-yl)piperidin-1-yl]-2-oxo-6-(3,3,3-trifluoroprop-1-en-2-yl)-1,2-dihydroquinoline-3-carbonitrile] | 5.1 nM
Cc1nc2cc(C3CCN(c4c(C#N)c(=O)n(C)c5ccccc45)CC3)ccc2o1 [Example 345, 1-methyl-4-[4-(2-methyl-1,3-benzoxazol-5-yl)piperidin-1-yl]-2-oxo-1,2-dihydroquinoline-3-carbonitrile] | 38 nM
Cn1c(=O)c(C#N)c(N2CCC(c3cccc(F)c3)CC2)c2ccccc21 [Example 62, 4-[4-(3-fluorophenyl)piperidin-1-yl]-1-methyl-2-oxo-1,2-dihydroquinoline-3-carbonitrile] | 38 nM
